Calls of active or inactive are those of the source. The calls are words filed in the database; no cut-off is given here.
How the values were obtained:
A549 [1] = assay: Antiproliferative activity against human A549 cells after 24 hrs by MTT assay; type: functional, cell-based; settings: A549, 24 h
OVCAR-3 = assay: Antiproliferative activity against human OVCAR3 cells after 24 hrs by MTT assay; type: functional, cell-based; settings: OVCAR-3, 24 h
SGC-7901 = assay: Antiproliferative activity against human SGC7901 cells after 24 hrs by MTT assay; type: functional, cell-based; settings: SGC-7901, 24 h
MDA-MB-231 = assay: Antiproliferative activity against human MDA-MB-231 cells after 24 hrs by MTT assay; type: functional, cell-based; settings: MDA-MB-231, 24 h
A549 [2] = assay: Antiproliferative activity against human A549 cells at 0.512 uM after 24 hrs by MTT assay relative to control; type: functional
A549 [3] = assay: Antiproliferative activity against human A549 cells at 1.28 uM after 24 hrs by MTT assay relative to control; type: functional
A549 [4] = assay: Antiproliferative activity against human A549 cells at 3.2 uM after 24 hrs by MTT assay relative to control; type: functional
A549 [5] = assay: Antiproliferative activity against human A549 cells at 8 uM after 24 hrs by MTT assay relative to control; type: functional
A549 [6] = assay: Antiproliferative activity against human A549 cells at 20 uM after 24 hrs by MTT assay relative to control; type: functional
[7] = Selectivity index, ratio of CC50 for HPAEpiC to IC50 for human A549 cells; type: toxicity; settings: HPAEpiC cells (CC50) versus A549 cells (IC50)
[8] = Selectivity index, ratio of CC50 for human IOSE80 cells to IC50 for human A549 cells; type: toxicity; settings: IOSE80 cells (CC50) versus A549 cells (IC50)
[9] = Selectivity index, ratio of CC50 for human GES1 cells to IC50 for human A549 cells; type: toxicity; settings: GES1 cells (CC50) versus A549 cells (IC50)
[10] = Selectivity index, ratio of CC50 for human HTB125 cells to IC50 for human A549 cells; type: toxicity; settings: HTB125 cells (CC50) versus A549 cells (IC50)
A549 [11] = assay: Induction of apoptosis in human A549 cells assessed as early apoptotic cells at 0.5 uM after 24 hrs by annexin V-FITC/propidium iodide staining-based flow cytometric method (reference value: 1.2%); type: functional
A549 [12] = assay: Induction of apoptosis in human A549 cells assessed as late apoptotic cells at 0.5 uM after 24 hrs by annexin V-FITC/propidium iodide staining-based flow cytometric method (reference value: 1.1%); type: functional
A549 [13] = assay: Induction of apoptosis in human A549 cells assessed as necrotic cells at 0.5 uM after 24 hrs by annexin V-FITC/propidium iodide staining-based flow cytometric method (reference value: 0%); type: functional
A549 [14] = assay: Induction of apoptosis in human A549 cells assessed as viable cells at 0.5 uM after 24 hrs by annexin V-FITC/propidium iodide staining-based flow cytometric method (reference value: 97.7%); type: functional; settings: A549, 24 h, read-out: Activity
A549 [15] = assay: Induction of apoptosis in human A549 cells assessed as early apoptotic cells at 1 uM after 24 hrs by annexin V-FITC/propidium iodide staining-based flow cytometric method (reference value: 1.2%); type: functional
A549 [16] = assay: Induction of apoptosis in human A549 cells assessed as late apoptotic cells at 1 uM after 24 hrs by annexin V-FITC/propidium iodide staining-based flow cytometric method (reference value: 1.1%); type: functional
A549 [17] = assay: Induction of apoptosis in human A549 cells assessed as necrotic cells at 1 uM after 24 hrs by annexin V-FITC/propidium iodide staining-based flow cytometric method (reference value: 0%); type: functional
A549 [18] = assay: Induction of apoptosis in human A549 cells assessed as viable cells at 1 uM after 24 hrs by annexin V-FITC/propidium iodide staining-based flow cytometric method (reference value: 97.7%); type: functional; settings: A549, 24 h, read-out: Activity
A549 [19] = assay: Induction of apoptosis in human A549 cells assessed as early apoptotic cells at 1.5 uM after 24 hrs by annexin V-FITC/propidium iodide staining-based flow cytometric method (reference value: 1.2%); type: functional
A549 [20] = assay: Induction of apoptosis in human A549 cells assessed as late apoptotic cells at 1.5 uM after 24 hrs by annexin V-FITC/propidium iodide staining-based flow cytometric method (reference value: 1.1%); type: functional
A549 [21] = assay: Induction of apoptosis in human A549 cells assessed as necrotic cells at 1.5 uM after 24 hrs by annexin V-FITC/propidium iodide staining-based flow cytometric method (reference value: 0%); type: functional
A549 [22] = assay: Induction of apoptosis in human A549 cells assessed as viable cells at 1.5 uM after 24 hrs by annexin V-FITC/propidium iodide staining-based flow cytometric method (reference value: 97.7%); type: functional; settings: A549, 24 h, read-out: Activity
A549 [23] = assay: Induction of apoptosis in human A549 cells assessed as early apoptotic cells at 3 uM after 24 hrs by annexin V-FITC/propidium iodide staining-based flow cytometric method (reference value: 1.2%); type: functional
A549 [24] = assay: Induction of apoptosis in human A549 cells assessed as late apoptotic cells at 3 uM after 24 hrs by annexin V-FITC/propidium iodide staining-based flow cytometric method (reference value: 1.1%); type: functional
A549 [25] = assay: Induction of apoptosis in human A549 cells assessed as necrotic cells at 3 uM after 24 hrs by annexin V-FITC/propidium iodide staining-based flow cytometric method (reference value: 0%); type: functional
A549 [26] = assay: Induction of apoptosis in human A549 cells assessed as viable cells at 3 uM after 24 hrs by annexin V-FITC/propidium iodide staining-based flow cytometric method (reference value: 97.7%); type: functional; settings: A549, 24 h, read-out: Activity
A549 [27] = assay: Induction of apoptosis in human A549 cells assessed as upregulation of bax protein expression at 0.5 to 3 uM after 24 hrs by Western blot method; type: functional, cell-based
A549 [28] = assay: Induction of apoptosis in human A549 cells assessed as increase in cleaved caspase-3 levels at 0.5 to 3 uM after 24 hrs by Western blot method; type: functional, cell-based
A549 [29] = assay: Induction of apoptosis in human A549 cells assessed as decrease in ratio of Bcl2/Bax at 0.5 uM after 24 hrs by Western blot method relative to control; type: functional
A549 [30] = assay: Induction of apoptosis in human A549 cells assessed as decrease in ratio of Bcl2/Bax at 1 uM after 24 hrs by Western blot method relative to control; type: functional
A549 [31] = assay: Induction of apoptosis in human A549 cells assessed as decrease in ratio of Bcl2/Bax at 1.5 uM after 24 hrs by Western blot method relative to control; type: functional
A549 [32] = assay: Induction of apoptosis in human A549 cells assessed as decrease in ratio of Bcl2/Bax at 3 uM after 24 hrs by Western blot method relative to control; type: functional

SMILES: O=C(NNC(=O)c1ccccc1NS(=O)(=O)c1cnc(O)nc1O)c1cccc(Cl)c1
- IC50 (A549 [1]): 1.26 µM
- IC50 (OVCAR-3): 2.08 µM
- IC50 (SGC-7901): 1.82 µM
- IC50 (MDA-MB-231): 4.42 µM
- Activity (A549 [2]): 35.83%
- Activity (A549 [3]): 51.21%
- Activity (A549 [4]): 55.39%
- Activity (A549 [5]): 66.28%
- Activity (A549 [6]): 82.54%
- selectivity ratio [7]: 16.7
- selectivity ratio [8]: 11.3
- selectivity ratio [9]: 14.2
- selectivity ratio [10]: 5.73
- Activity (A549 [11]): 6.9%
- Activity (A549 [12]): 1.6%
- Activity (A549 [13]): 0.1%
- viability at 0.5 µM (A549 [14]): 91.4%
- Activity (A549 [15]): 9.8%
- Activity (A549 [16]): 2.7%
- Activity (A549 [17]): 0.1%
- viability at 1 µM (A549 [18]): 87.4%
- Activity (A549 [19]): 19.6%
- Activity (A549 [20]): 2.5%
- Activity (A549 [21]): 0%
- viability at 1.5 µM (A549 [22]): 77.9%
- Activity (A549 [23]): 35.5%
- Activity (A549 [24]): 3.9%
- Activity (A549 [25]): 0.4%
- viability at 3 µM (A549 [26]): 60.2%
- Activity (A549 [27]): Active
- Activity (A549 [28]): Active
- fold change (FC) (A549 [29]): 0.8
- fold change (FC) (A549 [30]): 0.54
- fold change (FC) (A549 [31]): 0.3
- fold change (FC) (A549 [32]): 0.17

— ChEMBL document CHEMBL4152276, “Design, synthesis and biological evaluation of N-phenyl-(2,4-dihydroxypyrimidine-5-sulfonamido)benzoyl hydrazide derivatives as thymidylate synthase (TS) inhibitors and as potential antitumor drugs” (Eur J Med Chem, 2018)
